Test results as given in PMC7466295, “An Absorption and Plasma Kinetics Study of Monoterpenes Present in Mastiha Oil in Humans” (Foods, 2020).

How the values were obtained:
[1] = Postprandial plasma kinetics of monoterpenes after a single dose of Mastiha Oil (GC-MS-MS); type: in vivo, human; conditions: for Time of first detection in plasma: human plasma after 1 mL MO; for Area Under Curve: 1 mL MO oral single dose, linear trapezoidal method; for concentration at 24 h: 24 h after 1 mL MO; for Cmax / Tmax: healthy males, 1 mL MO oral single dose after overnight fasting; for concentration at 4 h: 4 h after 1 mL MO
Description: An open label intervention trial was designed to assess the postprandial plasma levels of the main monoterpenes present in MO and their effect in antioxidant capacity. A kinetic approach was applied. Fifty apparently healthy male adults were screened. Ten volunteers were found eligible to the study according to specific criteria (Table 1). Eligible subjects were informed about the aims, methodology, expected effect and any risk from the Information Leaflet of the study, before signing an Informed Consent. The investigator explained that participation was voluntary and participants received a copy of the signed Informed Consent.
A Thermo Ultra GC-Thermo XLS Quantum GC-MS-MS Triple Quad with a DB-5 ms 30 × 0.25 × 0.25 capillary column (Merck KGaA, Darmstadt, Germany) was used. The sample was injected using a Programmed Temperature Vaporizing (PTV) injector that allows concentration of samples, using an automated sampler. Injection volume was 1 µL.
To be able to determine low ppb levels, a GC-MS-MS technique was performed. Signal to noise improves radically compared to traditional GC-MS methods. Full scan MS-MS was first employed in analytical standards which run individually to determine the parent and daughter ions and retention times were validated with the use of analytical standards which run individually.
Initial temperature was held at 50 °C for 2 min. Then temperature was ramped to 60 °C with a rate of 5 °C/min. The temperature reached 270 °C at a rate of 7 °C/min. Injector temperature was set at 250 °C. The splitless injected volume was 1 µL. At 1.2 min the splitless valve switched.
The MS-MS conditions were as follows: Parent Ion was m/z 93 and daughter ions were 91 and 77 for all compounds. Collision energy was set at 8 V and collision gas pressure was 1.5 mTorr. MS-MS scan time was set at 0.15 s. The peak width was maintained at 0.7 amu.
For sample preparation, a 1:1 mixture of ethyl-acetate:hexane was used and equal volumes of blood plasma and extractant were put in centrifuge tubes and vortexed for 20 min. The samples were then centrifuged and filtrated before injection.
To be able to determine low ppb levels, a GC-MS-MS technique was performed, which, compared to traditional GC-MS methods, improves signal to noise values and thus sensitivity in the identification of compounds. Full scan MS-MS was first employed in analytical standards which run individually to determine the parent and daughter ions of the three terpenes and their retention times. Identification of chromatographic peaks was accomplished by using the parent ion and most abundant daughter ion of each compound and comparing the retention times with those of reference standards. For quantification, blank plasma samples (collected prior to MO administration) were spiked with standard monoterpene solutions ([…]), and were treated identically to the samples, since the standard addition method used eliminates the matrix effect. The standard monoterpene solutions were prepared in ethyl acetate in the range 2–2000 μg/L by diluting stock solutions (1 mg/mL). In all preliminary tests the average recovery for the monoterpenes studied was >80% and the detection limit was 0.02 µg/L.
The maximum concentrations of monoterpenes (Cmax) and the time intervals (Tmax) were obtained from each participant’s plasma concentration–time curve. The area under the plasma concentration–time curve (AUC) was analysed using the Linear Trapezoidal method.

[2] = parameters: method as in PMID 29197300; conditions: rats, oral administration; cited from earlier work
[3] = male, oral, human plasma, mean ± SEM

Time of first detection in plasma [1] | Area Under Curve ([1]; human plasma, mean ± SEM) | concentration at 0.5 h ([1]; male, oral, human plasma, 0.5 h after 1 mL MO, mean ± SEM) | concentration at 2 h ([1]; male, oral, human plasma, 2 h after 1 mL MO, mean ± SEM) | concentration at 24 h [1, 3] | Cmax ([1]; male, human plasma, mean ± SEM) | Tmax ([1]; male, human plasma, mean ± SEM) | concentration at 4 h [1, 3] | Structure (SMILES) | Time at which bioavailable in plasma [2] | Time of peak concentration in plasma [2]
0.5 h | 15318.0 ± 7313.3 ng·h/mL | 775 ± 64 ng/mL | 906 ± 44.6 ng/mL | 648 ± 60.3 ng/mL | 967 ± 89.7 ng/mL | 2.2 ± 1.7 h | – | C=CC(=C)CCC=C(C)C [Myrcene, myrcene] | – | –
0.5 h | 7865.2 ± 5547.3 ng·h/mL | – | – | 80.6 ± 7.3 ng/mL | 915 ± 551 ng/mL | 3.8 ± 1.2 h | 839 ± 189 ng/mL | CC1=CCC2CC1C2(C)C (stereo not drawn) [α-Pinene, α-pinene] | 0.17 h | 2.5 h
0.5 h | 164.0 ± 110.8 ng·h/mL | – | – | 2.1 ± 0.3 ng/mL | 18 ± 10.7 ng/mL | 3.6 ± 0.9 h | 16.7 ± 3.5 ng/mL | C=C1CCC2CC1C2(C)C (stereo not drawn) [β-Pinene, β-pinene] | – | –
